From paper PMC11406516, “The Tuberculosis Drug Candidate SQ109 and Its Analogs Have Multistage Activity against Plasmodium falciparum” (ACS Infectious Diseases, 2024)
In brackets after ≈: the same amount, converted by molar mass. Read-outs that look alike come from different tables or passages of the source. Marks after values point to notes of the source that are not given here.

How the values were obtained:
[1] = tested on: PfNF54 LGc (stage IV/V gametocytes); experiment: PrestoBlue late-stage gametocyte viability assay; assay type: cell-based, Plasmodium falciparum; settings: for IC50: Plasmodium falciparum, stage IV/V gametocytes, 48 h drug pressure, read-out: PfNF54 LGc IC50
Procedure: Gametocytogenesis was induced on highly synchronized (>95%) asexual ring-stage parasites from PfNF54 at 0.5% parasitemia and 6% hematocrit and thereafter maintained in glucose-deprived media as previously described.[29],[15] After 3 days, the hematocrit was decreased to 4%. Parasites were maintained in complete culture media supplemented with 50 mM N-acetyl-glucosamine 5–10 days post induction to inhibit proliferation of residual asexual blood stages. Gametocyte progression and morphology was also monitored microscopically using Giemsa-stained thin smears.
activity against the sexual stages of P. falciparum was evaluated using the PrestoBlue fluorescence assay as previously described.[4] Activity was measured on PfNF54 stage IV/V gametocytes (2% gametocytemia, 5% hematocrit) previously seeded with compounds (in non-lethal DMSO) for 48 h drug pressure, after which PrestoBlue reagent was added and incubated for 2 h. Fluorescence was detected in the supernatant at 612 nm. Dihydroartemisinin (DHA) was used as a positive drug control.

[2] = HepG2 cytotoxicity, LDH release assay; settings: human, HepG2 cells
Procedure: (§1) Furthermore, compounds were evaluated against late (stage IV/V) gametocytes from PfNF54 (PfNF54 LGc), with viability detected with PrestoBlue,[15] and orthogonally evaluated for toxicity against a human hepatocellular carcinoma line, HepG2.[16]
(§2) Human hepatocellular liver carcinoma cells (HepG2) were cultivated in vitro in Dulbecco’s Modified Eagle’s Medium (DMEM) supplemented with 10% (v/v) heat inactivated fetal bovine serum and 1% (v/v) penicillin/streptomycin.[14] Cells were detached with trypsin treatment at 80% confluency and were seeded in 96-well plates to adhere for 24 h under 5% CO2, humid (95%) conditions. Cells were subsequently exposed to drug pressure for 24 h and cytotoxicity was then determined using the lactate dehydrogenase (LDH) release assay through the colorimetric detection at 450 nm, as previously outlined.[4],[16]

PfNF54 ABS [3] = experiment: SYBR Green I proliferation assay, asexual blood stages, drug-sensitive NF54; settings: Plasmodium falciparum, NF54, 96 h, read-out: Pf ABS IC50 NF54
Procedure: (§3) P. falciparum asexual parasites were cultured from drug-sensitive NF54 (PfNF54) and multidrug resistant strains PfK1. Parasites were maintained in human erythrocytes (O+, suspended at 5% hematocrit) in RPMI-1640 culture medium (23.81 mM sodium bicarbonate, 0.024 mg/mL gentamycin, 25 mM HEPES pH 7.5, 0.2% D-glucose, 0.2 mM hypoxanthine and Albumax II) under hypoxic conditions (5% CO2, 5% O2 and 90% N2) with moderate shaking (60 rpm) at 37 °C. Cultures were synchronized to >95% in the ring stage with 5% (w/v) D-sorbitol treatment.[28]
(§4) Activity against the asexual stage of P. falciparum was evaluated using the SYBR Green I-based fluorescence assay as previously described.[4],[16] Cellular proliferation was measured on synchronized in vitro PfNF54 ring-stage parasites (1% parasitemia, 2% hematocrit), following drug pressure for 96 h. Chloroquine was used as the positive drug control for complete inhibition of parasite proliferation.

physchem = assay type: physicochemical; settings: 37 °C, pH 6.5, aqueous buffer, thermodynamic from solid
Procedure: The stock solutions (10^–2 M) of the assayed compounds were diluted to decreased molarity, from 300 to 0.1 μM, in 384 well transparent plate (Greiner 781801) with 1% DMSO:99% PBS buffer. Then, they were incubated at 37 °C and the light scattering was measured after 2 h in a NEPHELOstar Plus (BMG LABTECH). The results were adjusted to a segmented regression to obtain the maximum concentration in which compounds are soluble.
The solubility of each product was evaluated using an HPLC Agilent 1100 with a DAD detector. The samples were injected in an Agilent Poroshell 120 EC-C18, 2.7 μm, 50 mm × 4.6 mm column at 40 °C and 0.6 mL/min flow. The mobile phase was a mixture of A = water with 0.05% formic acid and B = acetonitrile with 0.05% formic acid. The procedure followed was from 95% A–5% B to 100% B in 3 min, 100% B in 3 min, from 100% B to 95% A–5% B in 1 min, 95% A–5% B in 3 min; the injection volume was set at 75 μL. […] The samples remained at these conditions between 12–24 h. Then, the samples were filtered through a 0.45 μm PVDF filter and either directly analyzed or diluted before analyzing. The obtained area under the curve was compared with the one from the standard solution.

male gametes (PfNF54) = experiment: Male gamete exflagellation inhibition assay (EIA); assay type: cell-based; settings: Plasmodium falciparum, 48 h, read-out: male gamete inhibition %
Procedure: The EIA was performed using video microscopy by capturing the movement of exflagellation centers over time as previously described.[4],[30] Mature PfNF54 stage V gametocytes (>95%;) were treated with 2 μM of drug for 48 h before the activation of exflagellation, without removing drug pressure. Movement was semi-automatically quantified from 15 videos of 8–10 s each between 15 and 22.5 min after incubation. Each video was analyzed using ICY-bio image analysis software.

female gametes = experiment: Female gamete inhibition assay; assay type: cell-based, Plasmodium falciparum; set-up: concentration or dose not given beside the values
Procedure: Similarly, female gametes were activated as described previously.[31] Monoclonal anti-Pfs antibody conjugated to FITC was used to detect female gametes. Image acquisition was performed using a Zeiss Axio Lab.A1 epifluorescence microscope with a 100/1.4 numerical aperture (NA) oil immersion. Thirty images were captured per sample and analyzed manually.

oocyst formation = experiment: Standard membrane feeding assay (SMFA), oocyst formation in Anopheles coluzzii; assay type: in vivo; settings: Plasmodium falciparum
Procedure: Transmission-blocking activity was confirmed in the standard membrane feeding assay (SMFA), by determining transmission-reducing activity (TRA; reduction in oocyst counts) and transmission-blocking activity (TBA, reduction in oocyst prevalence), 8–10 days after feeding female mosquitoes on gametocyte-infected blood, treated with selected compounds (at 2 μM).
SMFA was performed using glass feeders as is outlined.[4],[16] Once again, mature stage V gametocytes (>95%) were treated with 2 μM of each compound for 48 h prior to feeding. Anopheles coluzzii females were allowed to feed on gametocyte cultures (1.5–2.5% gametocytemia, 50% hematocrit in A+ male serum with fresh erythrocytes) in the dark for 40 min. All unfed or partially fed mosquitoes were removed, and remaining females housed for 8–10 days. Mosquitoes were dissected to remove midguts, and oocysts counted under bright field illumination at ×20–×40 magnification. The percentage of block in transmission (transmission-blocking activity; TBA) and the percentage of reduction in the number of oocysts (transmission-reducing activity; TRA) were calculated after normalizing to the control untreated sample.

HepG2 cells [4] = tested on: HepG2 cells
Procedure: as §1, §2

HepG2 cells [5] = experiment: HepG2 cytotoxicity, LDH release assay; settings: Homo sapiens, HepG2, 24 h, read-out: HepG2 EC50
Procedure: as §1, §2

PfK1 = experiment: SYBR Green I proliferation assay, asexual blood stages, multidrug-resistant K1; settings: Plasmodium falciparum, K1, read-out: Pf ABS IC50 K1
Procedure: as §3, §4

in vitro = in vitro ADME; settings: microsomes
Procedure: The microsomal stability assay used a single-point assay design (Di et al., 2004). Briefly, the compounds were incubated at 1 μM in human, rat, and mouse liver microsomes (0.4 mg/mL) for 30 min at 37 °C. Reactions were quenched by adding ice-cold acetonitrile containing internal standard (carbamazepine, 0.0236 μg/mL). The samples were then centrifuged, and the samples were analyzed by liquid chromatography with tandem mass spectrometry (LC-MS/MS) (Agilent Rapid Resolution HPLC, AB SCIEX 4500 MS) for the disappearance of the parent compound. Half-life, clearance and hepatic […] ratios were determined using standard equations.

PfNF54 ABS [6] = tested on: PfNF54 ABS; set-up: method as in Stampolaki et al.[5]; settings: drug-sensitive NF54; ref Stampolaki et al.[5]; read-out: Pf ABS IC50 NF54; cited from earlier work
HepG2 cells [7] = tested on: HepG2 cells; set-up: method as in Stampolaki et al.[5]; settings: compound at 20 μM; ref Stampolaki et al.[5]; cited from earlier work
[8] = 48 h drug treatment at 2 μM, single biological repeat, read-out: oocyst formation (% inhibition) TBA
[9] = 48 h drug treatment at 2 μM, single biological repeat, read-out: oocyst formation (% inhibition) TRA

Compound	IC50 [1]	viability at 24 h, 20 µM [2]	IC50 (PfNF54 ABS [3])	inhibition at 2 µM (male gametes (PfNF54); 2 μM)	female gamete inhibition % (female gametes)	IC50 (PfK1)	other results
CC(C)=CCC/C(C)=C/CNCCNC1CC2CCC1CC2 (centres unmarked) [Compound 11]	220 ± 40 nM	100%	1660 ± 300 nM				
CC(C)=CCC/C(C)=C/CNCCNC1CC2CCC1C2 (centres unmarked) [Compound 10]	500 ± 70 nM	97%	1170 ± 200 nM				solubility (physchem): 155 µM (≈ 45 µg/mL)
CC(C)CCCC(C)CCCC(C)CCNCCNC1C2CC3CC(C2)CC1C3 (centres unmarked) [Compound 20]	540 ± 40 nM		390 ± 150 nM	95 ± 5%	77.52 ± 10.85%	390 ± 10 nM	inhibition at 2 µM (oocyst formation; [8]): 54%; inhibition at 2 µM (oocyst formation; [9]): 75%; cytotoxicity to HepG2 cells (in words) (HepG2 cells [4]): moderately cytotoxic; EC50 (HepG2 cells [5]): 5110 ± 850 nM
CC(C)=CCC/C(C)=C/COCCNC1C2CC3CC(C2)CC1C3 (centres unmarked) [Compound 15]	> 10000 nM	100%	2460 ± 140 nM				
CC(C)=CCC/C(C)=C/CNCCNC(C)(C)C1C2CC3CC(C2)CC1C3 (centres unmarked) [Compound 8]	290 ± 10 nM			23.5 ± 9.72%	54.00 ± 2.54%	1610 ± 550 nM	solubility (physchem): 2340 µM (≈ 872 µg/mL); microsomal CLint at 1 µM (in vitro; human): 426 µL/min/mg; microsomal CLint at 1 µM (in vitro; mouse): 218 µL/min/mg; microsomal CLint at 1 µM (in vitro; rat): 467 µL/min/mg; IC50 (PfNF54 ABS [6]): 770 ± 100 nM; HepG2 % viability (HepG2 cells [7]): 100%^c
CC(C)=CCC/C(C)=C/CNCCOC1C2CC3CC(C2)CC1C3 (centres unmarked) [Compound 16]	> 10000 nM	99%	3780 ± 750 nM				
CC(C)=CCC/C(C)=C/CNCC(=O)NC1C2CC3CC(C2)CC1C3 (centres unmarked) [Compound 17]	> 10000 nM						IC50 (PfNF54 ABS [6]): 6490 ± 330 nM; HepG2 % viability (HepG2 cells [7]): 100%^b
c1ccc(Oc2cccc(CNCCNC3C4CC5CC(C4)CC3C5)c2)cc1 (centres unmarked) [Compound 23]	1510 ± 420 nM		960 ± 10 nM			4140 ± 1370 nM	cytotoxicity to HepG2 cells (in words) (HepG2 cells [4]): moderately cytotoxic; EC50 (HepG2 cells [5]): 20000 ± 5690 nM
CC(C)=CCC/C(C)=C/CNCCNC1(C)C2CC3CC(C2)CC1C3 (centres unmarked) [Compound 7]	200 ± 20 nM			27.1 ± 14%	34.05 ± 9.23%	860 ± 270 nM	solubility (physchem): 773 µM (≈ 266 µg/mL); microsomal CLint at 1 µM (in vitro; human): 254 µL/min/mg; microsomal CLint at 1 µM (in vitro; mouse): 348 µL/min/mg; microsomal CLint at 1 µM (in vitro; rat): 373 µL/min/mg; IC50 (PfNF54 ABS [6]): 660 ± 160 nM; HepG2 % viability (HepG2 cells [7]): 100%^c
c1ccc(CCNCCNC2C3CC4CC(C3)CC2C4)cc1 (centres unmarked) [Compound 22]	740 ± 150 nM	100%	730 ± 40 nM	92.1 ± 1.21%	85.40 ± 7.62%	1700 ± 210 nM	fold loss in gametocyte activity ([1]; LGc, compared to 1): 7 fold; inhibition at 2 µM (oocyst formation; [8]): 80%; inhibition at 2 µM (oocyst formation; [9]): 89%; cytotoxicity to HepG2 cells (in words) (HepG2 cells [4]): moderately cytotoxic
CC(C)=CCC/C(C)=C/CC/C(C)=C/CNCCNC1C2CC3CC(C2)CC1C3 (centres unmarked) [Compound 21]	510 ± 70 nM	75%	650 nM		86.30 ± 2.58%	1820 ± 310 nM	inhibition at 2 µM (male gametes (PfNF54)): 95.5 ± 4.55%; inhibition at 2 µM (oocyst formation; 48 h, read-out: oocyst formation (% inhibition) TBA): 20%; inhibition at 2 µM (oocyst formation; 48 h, read-out: oocyst formation (% inhibition) TRA): 56%
